Measurements: paper PMC6749586, “Design, Synthesis, and Anticancer Effect Studies of Iridium(III) Polypyridyl Complexes against SGC-7901 Cells” (Molecules, 2019)

Key:
Type in all cases: cell-based, human
[1] = tested on: SGC-7901 cells; experiment: MTT cytotoxicity assay, SGC-7901; settings: 48 h; for IC50: read-out: IC50 toward SGC-7901
Text: (§1) The lung carcinoma cell line A549, the cervical cancer cell line HeLa, the esophageal cancer cell line Eca-109, and the human hepatocellular carcinoma cell line BEL-7402 were purchased from the cell bank of the Cell Institute of Sinica Academia Shanghai (Shanghai, China). The gastric adenocarcinoma cell line SGC-7901, the hepatocellular carcinoma cell line HepG2, and the mouse embryonic fibroblast cell line NIH 3T3 were obtained from the Experimental Animal Center of Sun Yat-Sen University (Guangzhou, China). The BEL-7402 and SGC-7901 cell lines were cultured in Roswell Park Memorial Institute Medium (RPMI-1640); and A549, Eca-109, HepG2, and NIH 3T3 cells were grown in Dulbecco’s Modified Eagle’s Medium (DMEM), including 10% fetal bovine serum (FBS), 100 units mL^−1 penicillin/streptomycin mixture, and 2.0 g/L of NaHCO3. Cell passage experiments were performed with trypsin every 2 days to maintain exponential growth. All cells were cultured until they reached logarithmic growth phase, unless specifically noted.
(§2) Cell cytotoxicity following treatment with the iridium(III) complexes was detected by MTT assay. The cells were seeded into 96-well micro-assay culture plates (1 × 10^4 cells per well) and grown overnight in a 5% CO2 incubator at 37 °C. Then, the cell lines were treated with gradient concentrations of the complexes 1–3. After treatment for 48 h, MTT solution (5 mg mL^−1, […]) dissolved in phosphate buffer was added to each well and the cells were further cultured for 4 h. Upon completion of incubation, the solvent was removed and 100 µL/well of buffer containing dimethylformamide (50%) and sodium dodecyl sulfate (20%) was added to dissolve the produced formazan. The absorbance of each well was measured with a microplate reader at a wavelength of 490 nm. The IC50 values were determined from the plots of viability versus concentration used to treat the cells. Three independent experiments were performed to obtain the mean values.

[2] = tested on: HeLa cells; experiment: MTT cytotoxicity assay, HeLa; settings: 48 h, read-out: IC50 toward HeLa
Text: as §1, §2

[3] = tested on: HepG2 cells; experiment: MTT cytotoxicity assay, HepG2; settings: 48 h, read-out: IC50 toward HepG2
Text: as §1, §2

[4] = tested on: BEL-7402 cells; experiment: MTT cytotoxicity assay, BEL-7402; settings: 48 h, read-out: IC50 toward BEL-7402
Text: as §1, §2

[5] = tested on: SGC-7901 cells; experiment: Transwell cell invasion assay; settings: 4.0 µM 1, 15.0 µM 2, 15.0 µM 3, 24 h, Matrigel Transwell
Method: To analyze the efficacy of the iridium(III) complexes in preventing migration and offsetting the invasion potential of SGC-7901 cells, 24-well Transwell chambers coated with matrigel were used. The cells were trypsinized and re-suspended in serum-free RPMI-1640 at a density of 1.8 × 10^5 cells/mL. Then, 100 μL of the cell suspension and different concentrations of the complexes were placed in the top chambers of the Transwell plates, and 500 μL of RPMI-1640 containing 20% FBS was added to the lower chambers. After co-incubation for 24 h, non-invading cells in the top chambers of the Transwell plates were scraped away by cotton swabs, and invaded cells were fixed with paraformaldehyde for 15 min and stained with crystal violet solution (0.1%) for 20 min. The cells that invaded the underside of the Transwell plates were photographed with a microscope.

[6] = tested on: SGC-7901 cells; experiment: Annexin V-FITC/PI apoptosis analysis by flow cytometry; settings: 4.0 µM 1, 15.0 µM 2 or 3; for Early apoptotic cells (EA): 24 h (b62 says 48 h), control 2.84%
Method: A total of 1 mL of SGC-7901 cells at 2 × 10^6 cells/mL was seeded in a six-well plate and incubated overnight in a CO2 incubator at 37 °C. Then, the cells were treated with 1, 2, or 3 for 24 h. After treatment, the cells were harvested, washed three times with ice-cold PBS, and then re-suspended in 195 μL of 1 × Annexin V-FITC binding buffer. Next, 10 μL of PI and 5 μL of Annexin-FITC were sequentially added to each sample, stained in the dark for 20 min, and analyzed by a FACS Calibur flow cytometer ([…] Dickinson & Co., Franklin Lakes, NJ, USA). Annexin-V positive cells were considered apoptotic.

[7] = tested on: SGC-7901 cells; experiment: Intracellular ROS measurement with DCFH-DA; settings: 4.0 µM 1, 15.0 µM 2, 15.0 µM 3, Rosup positive control, 24 h, versus control
Method: 2,7-Dichloro-dihydrofluorescein diacetate (DCFH-DA) was used as a fluorescence probe to investigate the changes in intracellular ROS levels. SGC-7901 cells were placed in a 12-well plate at a density of 1.5 × 10^5 per well. After 24 h, the medium in the wells was replaced with a medium containing the corresponding concentration of 1–3, and the cells were incubated for 24 h. Finally, the cell pellets were suspended in PBS and imaged under the ImageXpress Micro XLS system (MD company, US). The DCF fluorescence intensity was calculated by flow cytometry.

[8] = tested on: SGC-7901 cells; experiment: ATP quantification assay (luciferin-luciferase); settings: 4.0 µM 1, 15.0 µM 2, 15.0 µM 3, 24 h; control 951.46 nM
Method: Approximately 2.4 × 10^6 cells were taken, evenly planted in a 6-well plate, and incubated overnight in an incubator at 37 °C. On the next day, the cells were exposed to different concentrations of compounds for 24 h in triplicate. Following exposure, 200 μL of cell lysis buffer was added to each well of the cell plate and lysed on ice. To measure ATP, 20 μL of the lysed cell suspension was added to 100 μL of a luciferin–luciferase reagent. Light emission was measured by a luminometer. ATP levels were determined using a standard curve.

[9] = tested on: SGC-7901 cells; experiment: Intracellular Ca2+ level with Fluo-3AM; settings: 4.0 µM 1, 15.0 µM 2, 15.0 µM 3, 24 h; controls weak green fluorescence
Method: SGC-7901 cells in the logarithmic growth phase were seeded in 12-well microassay culture plates (1.5 × 10^5 cells per well), incubated overnight, and then treated with different concentrations of the tested complexes (4.0 µM 1, 15.0 μM 2, and 15.0 μM 3) for 24 h. The control wells were prepared by the addition of solvent (10 μL PBS buffer). The concentration of Ca^2+ was detected using the Ca^2+-sensitive fluorescent probe Fluo-3AM. Upon completion of incubation, the medium was removed and the wells were washed twice with PBS buffer, following which the cells were dyed with Fluo-3AM for 30 min. After dyeing, the cells were washed again and stained with Hoechst 33258 (10 μg mL^−1) for 30 min. The remaining dye was removed and the cells were observed under an ImageXpress Micro XLS system.

| SMILES | IC50 toward SGC-7901 [1] | IC50 [1] | IC50 [2] | IC50 [3] | IC50 [4] | Inhibitory percentage of cell invasion [5] | Percentage including early and late apoptotic cells [6] | Early apoptotic cells (EA) [6] | Intracellular ROS level, DCF green fluorescence (imaging) [7] | Intracellular ATP amount [8] | Intracellular Ca2+ level, Fluo-3AM fluorescence [9] |
| --- | --- | --- | --- | --- | --- | --- | --- | --- | --- | --- | --- |
| F[P-](F)(F)(F)(F)F.O=[N+]([O-])c1cc2ccc[n+]3c2c2c1ccc[n+]2[Ir-5]312([c]3ccccc3-c3cccc[n+]31)[c]1ccccc1-c1cccc[n+]12 [Complex 1, [Ir(Hppy)2(NP)]PF6] | the same cytotoxicity as cisplatin | 3.6 ± 0.1 µM | 16.3 ± 0.9 µM | 30.9 ± 0.7 µM | 23 ± 0.8 µM | 51.09% | 37.07% | 29.9% | increased green fluorescence intensity | 913.91 nM | brilliant green fluorescence |
| F[P-](F)(F)(F)(F)F.Nc1c(N)c2cccnc2c2ncccc12.[Ir+3].[c-]1ccccc1-c1ccccn1.[c-]1ccccc1-c1ccccn1 [Complex 3, [Ir(Hppy)2(DAP)]PF6] |  | 11.1 ± 1.3 µM | 59.7 ± 6.8 µM | 95 ± 9.1 µM | 68.8 ± 4.6 µM | 48.90% | 41.8% | 13.7% | increased green fluorescence intensity | 945.02 nM | brilliant green fluorescence |
| F[P-](F)(F)(F)(F)F.Nc1c([N+](=O)[O-])c2cccnc2c2ncccc12.[Ir+3].[c-]1ccccc1-c1ccccn1.[c-]1ccccc1-c1ccccn1 [Complex 2, [Ir(Hppy)2(NAP)]PF6] |  | 14.1 ± 0.5 µM | 52.6 ± 1.4 µM | 99 ± 14.7 µM | 68.7 ± 1.5 µM | 46.01% | 35.6% | 14.8% | increased green fluorescence intensity | 880.48 nM | brilliant green fluorescence |
